Tests used:
[1] = tested on: KPC pancreatic tumors; experiment: In vivo efficacy of MOL-211 alone and with PD-1 antibody in mice bearing KPC pancreatic tumors
Procedure: In vivo studies were conducted to evaluate the efficacy of MOL-211 alone and in combination with PD-1 antibody in mice bearing KPC pancreatic tumors (FIG. 1A-FIG. 1E). Mice were treated daily with MOL-211 (50 mg/kg) administered by oral gavage; anti-PD-1 antibody was administered twice a week via IP injection. Mice were analyzed subsequent to tumor implantation for over 90 days using a vehicle control; MOL-211 at 50 mg/kg; anti-PD-1 antibody at 10 mg/kg; and a combination of MOL-211 and anti-PD-1.
A partial responder (PR) is defined as a tumor that regressed to 50% of the baseline tumor volume. A complete responder (CR) is defined as a tumor below the limits of palpation (40 mg). The ΔT/ΔC ratio is the ratio of tumor volume change (treated/control) from first day of treatment to last day of treatment. Median ILS represents median increase in lifespan.

[2] = tested on: CT-26 (murine colorectal carcinoma) tumors; experiment: In vivo study in BALB/c mice bearing CT-26 (murine colorectal carcinoma) tumors; conditions: FIG. 5A
Procedure: (§1) Female 6- to 7-week old C3H mice or BALB/c mice were implanted subcutaneously with 1×10^6 cultured SCC7 cells or CT-26 (murine colorectal carcinoma) cells into the region of the right axilla. Female 6- to 7-week old BALB/c mice were implanted with 2×10^6 cultured EMT-6 (murine mammary carcinoma) cells subcutaneously into the mammary fat pad. Mice were randomized into treatment groups and treatments initiated when tumors reached 60 to 100 mg. MOL-211 was administered daily by oral gavage at a dose of 50 mg/kg for the duration of the study and was prepared as a 5 mg/mL solution in 1:2 PG:1% Tween80/Na3PO4, based upon individual animal body weight (0.2 mL/20 g). PD-1 antibody was purchased from BioXcell (Lebanon, N.H.) and administered intraperitoneally (IP) at a dose of 10 mg/kg every third day. Subcutaneous tumor volume and body weights were measured three times a week. Tumor volumes were calculated by measuring two perpendicular diameters with calipers and using the formula: tumor volume=(length×width^2)/2. Individual animals were dosed until progression, defined as the time at which tumor burden reached 1000 mg. […] Animal body weight was monitored three times weekly (FIG. 4D, FIG. 5D, FIG. 6C).

[3] = tested on: SCC7 head and neck tumors; experiment: In vivo study in C3H mice bearing SCC7 head and neck tumors
Procedure: as §1

[4] = tested on: PD-L1; experiment: Western blot of PD-L1 protein in KPC-2 cells treated in vitro; format: cell-based; conditions: KPC-2 cells in culture; 10 micromolar; 24 and 48 hours; compared to DMSO
Procedure: KPC-2 cells were also grown in culture and treated for either 24 or 48 hours with DMSO or MOL-211 at a final concentration of 10 micromolar. Cells were harvested and manually homogenized in lysis buffer [25 mmol/L Tris-HCl (pH7.6), 150 mmol/L NaCl, 1% Nonidet P-40, 10% glycerol, 1 mmol/L dithiothreitol, and protease and phosphatase inhibitors], rocked for 30 minutes at 4° C., and centrifuged at 14,000 rpm for 20 min at 4° C. Protein concentration was determined by BioRad Protein Assays and lysates were subsequently subjected to SDS gel electrophoresis. Proteins were transferred to polyvinylidene fluoride membranes and probed with a primary antibody recognizing PD-L1 (Abcam, Cambridge, UK) and beta-actin. After incubation with anti-rabbit HRP-linked secondary antibody (Jackson ImmunoResearch Laboratories, West Grove, Pa.), proteins were detected using chemiluminescence (GE Healthcare, Chicago, Ill.).

[5] = tested on: EMT-6 (murine mammary carcinoma) tumors; experiment: In vivo study in female BALB/c mice bearing EMT-6 (murine mammary carcinoma) tumors; conditions: EMT-6 tumor-bearing mice; FIG. 6B
Procedure: as §1

CS(=O)(=O)Nc1cc(-c2ccc3ncnc(Nc4ccc(F)c(Cl)c4)c3c2)cnc1Cl [MOL-211, N-(2-chloro-5-(4-((3-chloro-4-fluorophenyl)amino)quinazolin-6-yl)pyridin-3-yl)methanesulfonamide]
Median ILS (median increase in lifespan) [1]: 82% | ΔT/ΔC (Day 19) ([1]; ratio of tumor volume change (treated/control) from first to last day of treatment, MOL-211 50 mg/kg daily oral gavage, PD-1 antibody 10 mg/kg/kg IP): 21% | CRs (complete responders) ([1]; tumor below the limits of palpation (40 mg)): 0% | PRs (partial responders) ([1]; tumor regressed to 50% of baseline tumor volume): 0 | calculated increase in lifespan (ILS) ([2]; BALB/c mice bearing CT-26 tumors, MOL-211 50 mg/kg, PD-1 antibody 10 mg/kg): 22% | increase in survival ([2]; mice bearing CT-26 tumors): Neither single agent nor combination treatment with MOL-211 and PD-1 antibody resulted in a therapeutically meaningful increase in survival | calculated increase in lifespan (ILS) ([3]; C3H mice bearing SCC7 tumors, MOL-211 50 mg/kg, PD-1 antibody 10 mg/kg, FIG. 4A): 206% | reduction in mean tumor volumes ([3]; mice bearing SCC7 tumors, compared with PD-1 antibody monotherapy, FIG. 4B): superior to PD-1 antibody monotherapy | PD-L1 protein levels (western blot) [4]: reduced PD-L1 protein levels | reduction in tumor volume compared to vehicle control [5]: did not result in a statistically significant reduction in tumor volume
